Data taken from patent publication US10844023B2 (Washington University, priority 2017, dated 2020).
“Also recorded” adds a separate entry of the source.

test system: Mfn2 null MEFs; test: Mitochondrial elongation (aspect ratio) fusogenicity assay; assay type: cell-based, mouse; set-up: % long compare to B: dose or concentration left out as unconfirmed; conditions: Mfn2 null MEFs, overnight; treatment with 1 μM compound (footnote)

| SMILES | Aspect ratio (MEAN ± SEM) |
| --- | --- |
| CC(c1cccc([N+](=O)[O-])c1)N(C)CC(=O)NCCSCc1ccccc1C#N (stereo not shown) [N-(2-{[(2-cyanophenyl)methyl]sulfanyl}ethyl)-2-{methyl[1-(3-nitrophenyl)ethyl]amino}acetamide] | 4.0 ± 0.5 |
| Cc1cccc(NC(=O)CSCC(=O)N(Cc2ccc(N(C)C)cc2)C(C)C)c1 [N-{[4-(dimethylamino)phenyl]methyl}-2-({[(3-methylphenyl)carbamoyl]methyl}sulfanyl)-N-(propan-2-yl)acetamide] | 4.6 ± 0.2 |
| Cc1cc(C)n2nc(C(=O)N3C[C@@H]4CCN(Cc5nccn5C)[C@@H]4C3)cc2n1 [drawing 198, 2-{[(3aS,6aS)-5-{5,7-dimethylpyrazolo[1,5-a]pyrimidine-2-carbonyl}-octahydropyrrolo[3,4-b]pyrrol-1-yl]methyl}-1-methyl-1H-imidazole] | 9.0 ± 3.1 |
| O=C1CC(SCCc2nc3ccccc3[nH]2)C(=O)N1c1cccc(F)c1 (stereo not shown) [drawing 199, 3-{[2-(1H-1,3-benzodiazol-2-yl)ethyl]sulfanyl}-1-(3-fluorophenyl)pyrrolidine-2,5-dione] | 6.9 ± 0.8 |
| Cc1ccc(C(C)C)c(OCCCSCc2nc3ccccc3[nH]2)c1 [drawing 200, 2-[({3-[5-methyl-2-(propan-2-yl)phenoxy]propyl}sulfanyl)methyl]-1H-1,3-benzodiazole] | 3.0 ± 0.4 |
| COc1ccc(SC(C)C(=O)Nc2cc[nH]n2)cc1 (stereo not shown) [drawing 201, 2-[(4-methoxyphenyl)sulfanyl]-N-(1H-pyrazol-3-yl)propanamide] | 3.8 ± 0.4 |
| O=C(CSCc1ccc(F)cc1)N1CCc2c([nH]c3ccccc23)C1c1ccc(Cl)cc1 (stereo not shown) [drawing 202, 1-[1-(4-chlorophenyl)-1H,2H,3H,4H,9H-pyrido[3,4-b]indol-2-yl]-2-{[(4-fluorophenyl)methyl]sulfanyl}ethan-1-one] | 4.7 ± 0.9 |

same assay, conditions: mitochondrial elongation / fusion

| SMILES | Fusogenic activity |
| --- | --- |
| O=C1CC(SCCc2nc3ccccc3[nH]2)C(=O)N1c1cccc(F)c1 (stereo not shown) [D9, 3-{[2-(1H-1,3-benzodiazol-2-yl)ethyl]sulfanyl}-1-(3-fluorophenyl)pyrro-lidine-2,5-dione] | failed validation in the secondary screen; also recorded: showed no true fusogenic activity |

same assay, conditions: mitochondrial elongation relative to Cpd B (B01 = 100); Mfn2 null MEFs, compound overnight as printed (FIG. 48)

| SMILES | % long compare to B |
| --- | --- |
| O=C(NCCSCc1ccsc1)C1CC2CCCC(C1)C2=O (stereo not shown) [B11, 9-oxo-N-(2-{[(thiophen-3-yl)methyl]sulfanyl}-ethyl)bicyclo[3.3.1]-nonane-3-carboxamide] | 23% |
| Cc1ccc(-n2c(SC(C)C(=O)Nc3ccnn3C(C)C)nnc2N2CCOCC2)cc1 (stereo not shown) [C01, 2-{[4-(4-methylphenyl)-5-(morpholin-4-yl)-4H-1,2,4-triazol-3-yl]sulfanyl}-N-[1-(propan-2-yl)-1H-pyrazol-5-yl]propanamide] | 16% |
| CCCc1noc(C(C)Sc2nc3cc(C)ccc3[nH]2)n1 (stereo not shown) [C02, 5-methyl-2-{[1-(3-propyl-1,2,4-oxadiazol-5-yl)ethyl]sulfanyl}-1H-1,3-benzodiazole] | 14% |
| COc1ccc(SC(C)C(=O)Nc2cc[nH]n2)cc1 (stereo not shown) [C03, 2-[(4-methoxyphenyl)sulfa-nyl]-N-(1H-pyrazol-3-yl)propanamide] | 10% |
| CCC(C)C1N=C2c3ccccc3N=C(SC(C)C(=O)Nc3cc(OC)cc(OC)c3)N2C1=O (stereo not shown) [C04, 2-{[2-(butan-2-yl)-3-oxo-2H,3H-imidazo[1,2-c]quinazolin-5-yl]sulfanyl}-N-(3,5-dimethoxyphenyl)pro-panamide] | −1% |
| O=C(CSCCc1ccccn1)Nc1ccc(Cl)c(Cl)c1 [C06, N-(3,4-dichlorophenyl)-2-{[2-(pyridin-2-yl)ethyl]sulfanyl}-acetamide] | −8% |
| O=C(CSCc1ccc(F)cc1)N1CCc2c([nH]c3ccccc23)C1c1ccc(Cl)cc1 (stereo not shown) [C07, 1-[1-(4-chlorophenyl)-1H,2H,3H,4H,9H-pyrido[3.4-b]indol-2-yl]-2-{[(4-fluorophenyl)methyl]sulfanyl}ethan-1-one] | 29% |
| Cc1ccc(C(C)C)c(OCCCSCc2nc3ccccc3[nH]2)c1 [C09, 2-[({3-[5-methyl-2-(propan-2-yl)phenoxy]propyl}-sulfanyl)methyl]-1H-1,3-benzodiazole] | −5% |
| CC(/N=N/C(=N)SC1CC(=O)N(c2cccc(C(=O)O)c2)C1=O)c1ccccc1 (stereo not shown) [C10, 3-(2,5-dioxo-3-{[(E)-N-[(1-phenylethyl)imino]car-bamimidoyl]sul-fanyl}pyrrolidin-1-yl)benzoic acid] | 0% |
| Cc1ccc(NC(=O)CC2SC(NC(c3ccc(C(C)C)cc3)c3c(O)[nH]c(=O)[nH]c3=O)=NC2=O)c(C)c1 (stereo not shown) [C11, N-(2,4-dimethylphenyl)-2-(2-{[(6-hydroxy-2,4-dioxo-1,2,3,4-tetrahydropyrimidin-5-yl)[4-(propan-2-yl)phenyl]methyl]am-ino}-4-oxo-4,5-dihydro-1,3-thiazol-5-yl)acetamide] | −4% |
| CCOc1ccccc1NC(=O)CSCc1cc(=O)c2ccc(C)c(C)c2[nH]1 [D01, 2-{[(7,8-dimethyl-4-oxo-1,4-dihydroquinolin-2-yl)methyl]sulfanyl}-N-(2-ethoxyphenyl)acetamide] | 9% |
| Cc1ccc(C(=O)C(C)Sc2nnc3c(=O)n(-c4ccc(C)c(C)c4)ccn23)cc1C (stereo not shown) [D02, 7-(3,4-dimethylphenyl)-3-{[1-(3,4-dimethylphenyl)-1-oxopropan-2-yl]sulfanyl}-7H,8H-[1,2,4]triazolo[4,3-a]pyrazin-8-one] | 13% |
| O=C(CSCC(=O)N1CCCc2ccccc21)Nc1ccccc1 [D03, 2-{[2-oxo-2-(1,2,3,4-tetrahydroquinolin-1-yl)ethyl]sulfanyl}-N-phenylacetamide] | −17% |
| CCOC(=O)c1sc(NC(=O)C(CC)Sc2nnc3c(n2)[nH]c2ccccc23)nc1C (stereo not shown) [D04, ethyl 4-methyl-2-(2-{5H-[1,2,4]triazino[5,6-b]indol-3-ylsulfanyl}butanamido)-1,3-thiazole-5-carboxylate] | 24% |
| COc1ccc2c(c1)C1(SCCN1C(=O)c1ccccc1C)C(=O)N2Cc1cccc(C(F)(F)F)c1 (stereo not shown) [D05, 5-methoxy-3′-(2-methylbenzoyl)-1-{[3-(trifluoromethyl)-phenyl]methyl}-1,2-dihydrospiro[indole-3,2′-[1,3]thiazolidine]-2-one] | 4% |
| O=C(NCCSCc1cccc(Cl)c1)C1CCCCn2nnnc21 (stereo not shown) [D07, N-(2-{[(3-chlorophenyl)methyl]-sulfanyl}ethyl)-5H,6H,7H,8H,9H-[1,2,3,4]tetrazolo[1,5-a]azepine-9-carboxamide] | −6% |
| COc1ccc(OCc2nnc(SC(C)C(=O)Nc3sc4c(c3C(N)=O)CCC4)n2C)cc1 (stereo not shown) [D8, 2-[2-({5-[(4-methoxyphenoxy)-methyl]-4-methyl-4H-1,2,4-triazol-3-yl}sulfanyl)propana-mido]-4H,5H,6H-cyclopenta[b)thiophene-3-carboxamide] | −1% |
| Cc1cc(C)n2nc(C(=O)N3C[C@@H]4CCN(Cc5nccn5C)[C@@H]4C3)cc2n1 [D08, 2-{[(3aS,6aS)-5-{5,7-dimethylpyrazolo[1,5-a]pyrimidine-2-carbonyl}-octahydropyrrolo[3,4-b]pyrrol-1-yl]methyl}-1-methyl-1H-imidazole] | 114% |
| O=C1CC(SCCc2nc3ccccc3[nH]2)C(=O)N1c1cccc(F)c1 (stereo not shown) [D09, 3-{[2-(1H-1,3-benzodiazol-2-yl)ethyl]sulfanyl}-1-(3-fluorophenyl)pyrro-lidine-2,5-dione] | 73% |
| Cc1ccc(SC2CCN(Cc3cc4n(n3)CCNC4)CC2)cc1 [D10, 4-[(4-methylphenyl)sulfanyl]-1-({4H,5H,6H,7H-pyrazolo[1,5-a]pyrazin-2-yl}methyl)piperidine] | −7% |
| Cc1nc[nH]c1CSCCNC(=O)C1CCN(C(=O)C2CCC2)CC1 [D11, 1-cyclobutanecarbonyl-N-(2-{[(4-methyl-1H-imidazol-5-yl)methyl]sulfanyl}-ethyl)piperidine-4-carboxamide] | −8% |
| Cc1ccc(N2C[C@@H]3CC[C@H](C2)N(Cc2ccccn2)C3=O)nn1 [D12, (1S,5R)-3-(6-methylpyridazin-3-yl)-6-[(pyridin-2-yl)methyl)-3,6-diazabicyclo[3.2.2] nonan-7-one] | −4% |
| CC(C)C1=CC2C(=O)NC(CSCC(=O)NCc3ccccn3)=NC2S1 (stereo not shown) [E02, 2-({[4-oxo-6-(propan-2-yl)-3H,4H,4aH,7aH-thieno[2,3-d]pyrimidin-2-yl]methyl}sulfanyl)-N-[(pyridin-2-yl)methyl]acetamide] | 11% |
| Cc1nc[nH]c1CSCCn1cnc2cn(C)nc2c1=O [E03, 2-methyl-6-(2-{[(4-methyl-1H-imidazol-5-yl)methyl]sulfanyl}-ethyl)-2H,6H,7H-pyrazolo[4,3-d]pyrimidin-7-one] | −10% |
| CCC(C)NC(=O)c1ccccc1NC(=O)C(C)Sc1ccc(C)cc1 (stereo not shown) [E04, N-(butan-2-yl)-2-{2-[(4-methyl-phenyl)sulfanyl]pro-panamido}benzamide] | 1% |
| O=C(NCCSCc1ccccc1)C1CCCCO1 (stereo not shown) [E05, N-[2-(benzyl-sulfanyl)ethyl]oxane-2-carboxamide] | 1% |
| Cc1nnc(SCCCNC(=O)c2n[nH]c3c2CN(C)CC3)s1 [E06, 5-methyl-N-{3-[(5-methyl-1,3,4-thiadiazol-2-yl)sulfanyl]propyl}-1H,4H,5H,6H,7H-pyrazolo[4,3-c]pyridine-3-carboxamide] | −3% |
| c1ccc(CSCCc2nc(C3CCOC3)no2)cc1 (stereo not shown) [E07, 5-[2-(benzylsulfanyl)ethyl]-3-(oxolan-3-yl)-1,2,4-oxadiazole] | 4% |

same assay, conditions: rank order of aspect ratio among 44 soluble library compounds

| SMILES | Fusogenicity Rank |
| --- | --- |
| CC(c1cccc([N+](=O)[O-])c1)N(C)CC(=O)NCCSCc1ccccc1C#N (stereo not shown) [N-(2-{[(2-cyanophenyl)methyl]sulfanyl}ethyl)-2-{methyl[1-(3-nitrophenyl)ethyl]amino}acetamide] | 16 |
| Cc1cccc(NC(=O)CSCC(=O)N(Cc2ccc(N(C)C)cc2)C(C)C)c1 [N-{[4-(dimethylamino)phenyl]methyl}-2-({[(3-methylphenyl)carbamoyl]methyl}sulfanyl)-N-(propan-2-yl)acetamide] | 12 |
| Cc1cc(C)n2nc(C(=O)N3C[C@@H]4CCN(Cc5nccn5C)[C@@H]4C3)cc2n1 [drawing 198, 2-{[(3aS,6aS)-5-{5,7-dimethylpyrazolo[1,5-a]pyrimidine-2-carbonyl}-octahydropyrrolo[3,4-b]pyrrol-1-yl]methyl}-1-methyl-1H-imidazole] | 1 |
| O=C1CC(SCCc2nc3ccccc3[nH]2)C(=O)N1c1cccc(F)c1 (stereo not shown) [drawing 199, 3-{[2-(1H-1,3-benzodiazol-2-yl)ethyl]sulfanyl}-1-(3-fluorophenyl)pyrrolidine-2,5-dione] | 3 |
| Cc1ccc(C(C)C)c(OCCCSCc2nc3ccccc3[nH]2)c1 [drawing 200, 2-[({3-[5-methyl-2-(propan-2-yl)phenoxy]propyl}sulfanyl)methyl]-1H-1,3-benzodiazole] | 37 |
| COc1ccc(SC(C)C(=O)Nc2cc[nH]n2)cc1 (stereo not shown) [drawing 201, 2-[(4-methoxyphenyl)sulfanyl]-N-(1H-pyrazol-3-yl)propanamide] | 22 |
| O=C(CSCc1ccc(F)cc1)N1CCc2c([nH]c3ccccc23)C1c1ccc(Cl)cc1 (stereo not shown) [drawing 202, 1-[1-(4-chlorophenyl)-1H,2H,3H,4H,9H-pyrido[3,4-b]indol-2-yl]-2-{[(4-fluorophenyl)methyl]sulfanyl}ethan-1-one] | 11 |
